From patent publication US20110039770A1, “INHIBITORS OF PROTEIN KINASE C ISOFORMS AND USES THEREOF” (PHARMAGAP INC., priority 2005, published 2011)
Where a SMILES comes first, the peptide text is derived from it. The star is where a group is joined. PNA(A) = NCCN(CC(=O)*)C(=O)Cn1cnc2c(N)ncnc21

Tests used:
[1] = test system: H661 human non-small cell lung cancer cells; test: Inhibition of NSCLC cell proliferation (protocol of Example 14); type: cell-based; details: for % Cell Survival (±S.D.): H661
Method: The ability of compounds PKI 1, PKI 2 and PKI 3 to inhibit cancer cell proliferation was tested in vitro using the human neuroblastoma cell line IMR-32. Monolayer cell cultures were trypsinized and the test compound was added at the doses indicated in Table 24 and internalized by pinocytic endocytosis using Influx TM pinocytic cell-loading reagent, a kit from Molecular Probes (Eugene, Oreg.) following the manufacturer's recommendations. The indicated doses refer to the concentration in the loading medium, which was used on 1×10^6 cells in a 10 μl volume, i.e. contained 10 μg to 100 ug of test compound that provides […] per cell. It is worth noting, however, that only a small proportion of the compound is internalized using this technique, so the actual dose may be lower. The cells were treated on day 0 of the experiment. The cells loaded with test compound were cultured in 96 well plates (5,000 cells in 100 μl per well), and the proliferation was monitored over 3 consecutive days. The increase in cell population was quantified using a Hoechst reagent-based assay (modified from Rao and Otto, 1992, Analytical Biochem. 207:186-192) that measures the total DNA of the population. Fluorescence was measured using a Millipore CytoFluor 2350 plate reader (excitation at 360 nm and emission at 460 nm). The measurements were obtained as relative fluorescence intensity, a value that is directly correlated to the total number of cells. Data are expressed as a percentage of matching controls that were supplemented with culture medium alone.
The ability of the compound TIM 10 to inhibit cancer cell proliferation was tested in vitro using the human non-small cell lung cancer cell line H661 and following the general protocol described in Example 14. The effect of compound TIM 10 on CCD-16Lu cells (normal immortalized human lung fibroblasts) was also assessed by the same protocol. The results after 24, 48 and 72 hours of treatment are shown in Table 31 (H661 cell line) and FIG. 24 (A: CCD-16LU cell line, and B: H661 cell line). The change in dose effect at 48 and 72 hrs in normal cells (see FIG. 24A) for lower doses of compound TIM 10 was interpreted as being due to the probable intracellular degradation of compound TIM 10 which would reduce the level of compound TIM 10 to doses that no longer affect growth. In H661 cells, however, at doses of 1 mM compound TIM 10 was not degraded and its sub localization was not altered as assessed by western blot and immunocytochemistry imaging.

[2] = Repeat-dose toxicity study in mice; type: in vivo, mouse; details: 72-hour dosing schedule up to 75 days, subcutaneous
Excerpt: A dosage of 25 micrograms per mouse was provided to a cohort of mice by subcutaneous injection. No physiological, behavioral or external signs of toxicity were observed.

[3] = test system: peripheral blood lymphocytes; test: Peripheral blood lymphocyte survival and blastogenic response to mitogens; type: cell-based; details: primary lymphocytes of pigs, mice and human
PKC alpha = PKC alpha (Homo sapiens, UniProt P17252); test: PKC isoform protein levels in cancer cell lines after TIM 10 (Western blot); type: cell-based; design: endogenous in cells; host or cells: MDA MB-231, T24, SKOV-3, MCF-7, Capan-2, NCI-H661, Calu-6, Calu-3; details: 5 mM by pinocytic influx, 24 hrs
Method: The effect of compound TIM 10 on the levels of protein for various PKC isoforms was assessed as generally described below in the following human cancer cell lines: MDA MB-231 breast adenocarcinoma cells (ATCC HTB-26); T24 bladder transitional cell carcinoma (ATCC HTB-4); SKOV-3 ovary adenocarcinoma (ATCC HTB-77); MCF-7 breast adenocarcinoma (ATCC HTB-22); Capan-2 pancreatic adenocarcinoma (ATCC HTB-80); NCI-H661 NSCL large cells (ATCC HTB-183); Calu-6 probable lung anaplastic carcinoma (ATCC HTB-56) and Calu-3 lung adenocarcinoma (ATCC HTB-55).
Cells representative of the different cancer types were cultured according to ATCC instructions. At subconfluence, the cells were trypsinized and compound 10 (5 mM) was incorporated into the cells by pinocytic influx endocytosis according to the manufacturer's instructions (Molecular Probe). Matching controls were treated accordingly except that vehicle was incorporated instead of compound 10. Following pinocytic influx, the cells were seeded and allowed to grow in fresh medium for 24 hrs. The cell cultures were further extracted using RIPA lysis buffer according to standard protocol. The protein content of each lysate was measured using Bradford protein estimation procedure (BioRad) and normalized. Following addition of sample buffer, the proteins from 15 μl of each extract were separated by electrophoresis, electro-transferred to nitrocellulose membranes and the various isoforms of PKC were detected using appropriate antibodies (Santa Cruz Biotechnology, Inc., CA). The relative intensity of bands of the expected molecular weight was estimated after scanning and the % decrease in the band intensity relative to control was calculated.

CC[C@H](C)[C@H](NC(=O)[C@H](CO)NC(=O)[C@@H](NC(=O)CNC(=O)[C@@H](NC(=O)[C@H](CC(C)C)NC(=O)[C@H](CC(N)=O)NC(=O)[C@H](CCC(N)=O)NC(=O)[C@H](C)NC(=O)[C@H](CC(=O)O)NC(=O)[C@H](CCCCN)NC(=O)CNC(=O)CNC(=O)CNC(=O)CNC(=O)CNC(=O)CNC(=O)CNC(=O)[C@H](CC(C)C)NC(=O)[C@H](CCCNC(=N)N)NC(=O)[C@H](Cc1ccccc1)NC(=O)[C@H](CCCCNC(=O)CN(CCN)C(=O)Cn1cnc2c(N)ncnc21)NC(=O)[C@H](CCCNC(=N)N)NC(=O)[C@H](CCCNC(=N)N)NC(=O)[C@H](Cc1ccccc1)NC(C)=O)[C@@H](C)CC)[C@@H](C)CC)C(N)=O [TIM 10] (Ac-FRRK(PNA(A))FRLGGGGGGGKDAQNLIGISI-NH2)
% Cell Survival (±S.D.) ([1]; 100 μM, 24 Hours): 97 (6) % | % Cell Survival (±S.D.) ([1]; 100 μM, 48 Hours): 85 (3) % | % Cell Survival (±S.D.) ([1]; 100 μM, 72 Hours): 51 (5) % | % Cell Survival (±S.D.) ([1]; 500 μM, 24 Hours): 91 (5) % | % Cell Survival (±S.D.) ([1]; 500 μM, 48 Hours): 82 (2) % | % Cell Survival (±S.D.) ([1]; 500 μM, 72 Hours): 49 (7) % | % Cell Survival (±S.D.) ([1]; 1 mM, 24 Hours): 85 (9) % | % Cell Survival (±S.D.) ([1]; 1 mM, 48 Hours): 82 (2) % | % Cell Survival (±S.D.) ([1]; 1 mM, 72 Hours): 45 (6) % | % Cell Survival (±S.D.) ([1]; 5 mM, 24 Hours): 83 (7) % | % Cell Survival (±S.D.) ([1]; 5 mM, 48 Hours): 79 (2) % | % Cell Survival (±S.D.) ([1]; 5 mM, 72 Hours): 43 (5) % | intracellular degradation ([1]; H661 cells, 1 mM, western blot and immunocytochemistry): not degraded | toxicity on repeated dosing [2]: no evidence of toxicity | toxicity on repeated dosing ([2]; listed as PhGalpha1): No evidence of toxicity | apoptosis of peripheral blood lymphocytes [3]: do not induce apoptosis | blastogenic response to mitogens [3]: do not drastically limit the blastogenic response | % decrease PKC-α band intensity relative to control (PKC alpha; Calu-3): 21.8% | % decrease PKC-α band intensity relative to control (PKC alpha; Calu-6): 57.8% | % decrease PKC-α band intensity relative to control (PKC alpha; Capan-2): 53.4% | % decrease PKC-α band intensity relative to control (PKC alpha; H661): 28.1% | % decrease PKC-α band intensity relative to control (PKC alpha; MCF-7): 12.0% | % decrease PKC-α band intensity relative to control (PKC alpha; MDA-MB231): 36.6% | % decrease PKC-α band intensity relative to control (PKC alpha; SK-OV-3): 63.4% | % decrease PKC-α band intensity relative to control (PKC alpha; T24): 42.5%
